The OligoGym collection
“And” between values parts separate entries of the source, which are not always exact repeats. Identical values can stand only once. After the bases stand the sugars from the 5' end (letter, count) and the backbone: PS all phosphorothioate, else s phosphorothioate and o phosphodiester by linkage. Methylation of C is not given here. k = constrained ethyl (cEt); d = 2'-deoxy (DNA)

Experiments:
[1] = molecular target: MALAT1; settings: ASO, A431, 0.005 µM
[2] = molecular target: IRF4; settings: ASO

Row | Sequence | target mRNA inhibition [1] | also measured
1 | AAAAAGTAGTTCTTCG (sugars k3 d10 k3, PS) | 16% | –
2 | AAAAGGCTCGATGGAA (sugars k3 d10 k3, PS) | 11% | –
3 | AAACCGATTATGGATC (sugars k3 d10 k3, PS) | 3% | –
4 | AAACTTGCTTACACAC (sugars k3 d10 k3, PS) | 25% | –
5 | AAAGAGTAACTACCAG (sugars k3 d10 k3, PS) | 22% | –
6 | AAAGATATTGTGCTGT (sugars k3 d10 k3, PS) | 11% | –
7 | AAAGTGGTTGCCCGCT (sugars k3 d10 k3, PS) | 15% | –
8 | AAATCGCACTGGCTCC (sugars k3 d10 k3, PS) | 6% | –
9 | AAATTTTTCTACCGTT (sugars k3 d10 k3, PS) | -3% | –
10 | AACAGTACTGCATTTA (sugars k3 d10 k3, PS) | 36% | –
11 | AACATATTTTGCCCCC (sugars k3 d10 k3, PS) | 22% | –
12 | AACATTTGGCCTACTC (sugars k3 d10 k3, PS) | 42% | –
13 | AACCGATTATGGATCA (sugars k3 d10 k3, PS) | 49% | –
14 | AACCGTAACAGGCCAC (sugars k3 d10 k3, PS) | 50% | –
15 | AACCTTCATGACCCTA (sugars k3 d10 k3, PS) | 20% | –
16 | AACGAAGAGATACCTG (sugars k3 d10 k3, PS) | 12% | –
17 | AACTAAATCATTGGGA (sugars k3 d10 k3, PS) | -1% | –
18 | AACTCCAAGAACTAGC (sugars k3 d10 k3, PS) | 30% | –
19 | AACTCCACAGCTCTTA (sugars k3 d10 k3, PS) | 41% | –
20 | AAGACCTCGACACCAT (sugars k3 d10 k3, PS) | 44% | –
21 | AAGAGTAACTACCAGC (sugars k3 d10 k3, PS) | 6% | –
22 | AAGATCGCCTTCAAAT (sugars k3 d10 k3, PS) | 49% | –
23 | AAGATGCTAGCTTGGC (sugars k3 d10 k3, PS) | 24% | –

Row | Sequence | target mRNA inhibition [1] | also measured
24 | AAGCACCGCTTGAGAT (sugars k3 d10 k3, PS) | 8% and 13% | –
25 | AAGCCAAGCCGCCTGC (sugars k3 d10 k3, PS) | 29% | –
26 | AAGCGAATGGCTTTGT (sugars k3 d10 k3, PS) | 6% | –
27 | AAGCGAGTTCAAGTGG (sugars k3 d10 k3, PS) | 15% | –
28 | AAGGATCCAAGCTACT (sugars k3 d10 k3, PS) | 8% | –
29 | AAGGTTACCATAAGTA (sugars k3 d10 k3, PS) | 46% | –
30 | AAGTCTCGGGCTGCAG (sugars k3 d10 k3, PS) | 4% | –
31 | AAGTTACATGTTCCCA (sugars k3 d10 k3, PS) | 39% | –
32 | AATAAGCACTTATCCC (sugars k3 d10 k3, PS) | 31% | –
33 | AATACTTGTCTTAGCT (sugars k3 d10 k3, PS) | 41% | –
34 | AATAGTACTATAGCAT (sugars k3 d10 k3, PS) | 15% | –
35 | AATATCTTAGTAACCT (sugars k3 d10 k3, PS) | 19% | –
36 | AATCAAGTCAAGCTCC (sugars k3 d10 k3, PS) | 14% | –
37 | AATCACAAATACGACT (sugars k3 d10 k3, PS) | 23% | –
38 | AATCACCTACAACTTT (sugars k3 d10 k3, PS) | 26% | –
39 | AATCACCTTCGGTTTA (sugars k3 d10 k3, PS) | -1% | –
40 | AATCCCCTAGGGAAGG (sugars k3 d10 k3, PS) | 5% | –
41 | AATGCTAGTCCTCAGG (sugars k3 d10 k3, PS) | 57% and 78% | –
42 | AATGGAGGTATGACAT (sugars k3 d10 k3, PS) | 5% | –
43 | AATTAATGCTAGTCCT (sugars k3 d10 k3, PS) | 16% | –
44 | AATTACTCTTGATCTT (sugars k3 d10 k3, PS) | 51% | –
45 | ACAAACTGCTTACAGA (sugars k3 d10 k3, PS) | 17% | –
46 | ACAAGTTACATGTTCC (sugars k3 d10 k3, PS) | 21% | –

Row | Sequence | target mRNA inhibition [1] | also measured
47 | ACAATCAAGTCAAGCT (sugars k3 d10 k3, PS) | 15% | –
48 | ACACCCGGAAATCGGC (sugars k3 d10 k3, PS) | 8% | –
49 | ACACTTCTCTTGACCT (sugars k3 d10 k3, PS) | 60% and 44% and 50% | –
50 | ACAGATTAGTAGTCAA (sugars k3 d10 k3, PS) | 9% | –
51 | ACAGTAGGTATAGTTT (sugars k3 d10 k3, PS) | 24% | –
52 | ACATGCCAGTTACTCC (sugars k3 d10 k3, PS) | 39% | –
53 | ACCAAATTGCACTCGC (sugars k3 d10 k3, PS) | 40% | –
54 | ACCAATCCCAACCGTA (sugars k3 d10 k3, PS) | 18% | –
55 | ACCACAACAATTTAGA (sugars k3 d10 k3, PS) | -10% | –
56 | ACCACCACCTGGAATG (sugars k3 d10 k3, PS) | 22% | –
57 | ACCACCTGGAATGGCC (sugars k3 d10 k3, PS) | 15% | –
58 | ACCCACCAAAGACCTC (sugars k3 d10 k3, PS) | 9% | –
59 | ACCCAGCATTACAGTT (sugars k3 d10 k3, PS) | 8% | –
60 | ACCCCTGACTTTCTGG (sugars k3 d10 k3, PS) | 18% | –
61 | ACCGATTATGGATCAT (sugars k3 d10 k3, PS) | 36% | –
62 | ACCGCTTGAGATTTGG (sugars k3 d10 k3, PS) | 32% and 41% | –
63 | ACCGGAATTCGATCAC (sugars k3 d10 k3, PS) | 35% | –
64 | ACCGTTTTTCAGCTTC (sugars k3 d10 k3, PS) | -30% | –
65 | ACCTGGAATGGCCAGC (sugars k3 d10 k3, PS) | 21% | –
66 | ACCTTAGGATAATAGC (sugars k3 d10 k3, PS) | 39% | –
67 | ACCTTCTAACTTCTGC (sugars k3 d10 k3, PS) | 64% and 42% | –
68 | ACCTTGAGTCATTTGC (sugars k3 d10 k3, PS) | 66% | –
69 | ACGAAACATTGGCACA (sugars k3 d10 k3, PS) | 62% and 40% | –

Row | Sequence | target mRNA inhibition [1] | also measured
70 | ACGAAACTCCCCCATT (sugars k3 d10 k3, PS) | 36% | –
71 | ACGAACTGCTGCTTGC (sugars k3 d10 k3, PS) | 66% and 49% and 50% | –
72 | ACGGAGAACAACTCGC (sugars k3 d10 k3, PS) | 1% | –
73 | ACTAAGCTACTATATT (sugars k3 d10 k3, PS) | 39% | –
74 | ACTATATTTAAGGCCT (sugars k3 d10 k3, PS) | 40% | –
75 | ACTATTTCTCCAGGAC (sugars k3 d10 k3, PS) | 20% | –
76 | ACTCAGCCTTTATCAC (sugars k3 d10 k3, PS) | -5% | –
77 | ACTCCAAGAACTAGCA (sugars k3 d10 k3, PS) | 11% | –
78 | ACTCGCATCACCGGAA (sugars k3 d10 k3, PS) | 15% | –
79 | ACTCTAAGATTGTAAG (sugars k3 d10 k3, PS) | 25% | –
80 | ACTCTTGATCTTGAAT (sugars k3 d10 k3, PS) | 43% | –
81 | ACTGTAAACCTGTGGT (sugars k3 d10 k3, PS) | -6% | –
82 | ACTTACTGGTTTAAGT (sugars k3 d10 k3, PS) | -3% | –
83 | ACTTTTAATCATACTC (sugars k3 d10 k3, PS) | 21% | –
84 | AGAAACCTACAACACC (sugars k3 d10 k3, PS) | -6% | –
85 | AGAACTAGCACCTGCA (sugars k3 d10 k3, PS) | 15% | –
86 | AGAACTAGTGGTTCCC (sugars k3 d10 k3, PS) | -3% | –
87 | AGAACTGCTCTAGTTT (sugars k3 d10 k3, PS) | -6% | –
88 | AGACGGAGAACAACTC (sugars k3 d10 k3, PS) | -14% | –
89 | AGAGTAACTACCAGCC (sugars k3 d10 k3, PS) | 55% and 76% | –
90 | AGATTCCGTAACTTTA (sugars k3 d10 k3, PS) | 78% and 92% | –
91 | AGATTGTAAGCATTTA (sugars k3 d10 k3, PS) | 42% | –
92 | AGCACATCATGCTATT (sugars k3 d10 k3, PS) | 26% | –

Row | Sequence | target mRNA inhibition [1] | also measured
93 | AGCACTTATCCCTAAC (sugars k3 d10 k3, PS) | 40% | –
94 | AGCAGAAGCCCCTGCG (sugars k3 d10 k3, PS) | -1% | –
95 | AGCAGCGGGATCAGAA (sugars k3 d10 k3, PS) | 19% | –
96 | AGCCAAGCCGCCTGCT (sugars k3 d10 k3, PS) | 20% | –
97 | AGCCTTCAGAGATTCA (sugars k3 d10 k3, PS) | 75% and 91% | –
98 | AGCGGTACACTCCTTC (sugars k3 d10 k3, PS) | 50% and 43% | –
99 | AGCTACAACAAGTAAG (sugars k3 d10 k3, PS) | 12% | –
100 | AGCTACTTAGCTGTGG (sugars k3 d10 k3, PS) | 34% | –
101 | AGCTCCTGACAAATTA (sugars k3 d10 k3, PS) | 15% | –
102 | AGCTGAACTATCACAA (sugars k3 d10 k3, PS) | 5% | –
103 | AGCTGAGGCTTCCCGG (sugars k3 d10 k3, PS) | 12% | –
104 | AGCTGTTTAAGTCACC (sugars k3 d10 k3, PS) | 62% and 57% | –
105 | AGCTTGACAAGCAATT (sugars k3 d10 k3, PS) | 16% | –
106 | AGGACTTGGCAGTCTG (sugars k3 d10 k3, PS) | 30% | –
107 | AGGATCCAAGCTACTG (sugars k3 d10 k3, PS) | -13% | –
108 | AGGATGAAATGCCTCT (sugars k3 d10 k3, PS) | 22% | –
109 | TTTCTACAAGGTCTGA (sugars k3 d10 k3, PS) | – | target mRNA inhibition ([2]; MM.1R, 1 µM): 3%
110 | TTTGTACGGGTCTGAG (sugars k3 d10 k3, PS) | – | target mRNA inhibition ([2]; SK-MEL-28, 4 µM): 20%
111 | TTTTACCTGGTATTGC (sugars k3 d10 k3, PS) | – | target mRNA inhibition ([2]; SK-MEL-28, 4 µM): -2%
112 | TTTTTAGTTCATACCC (sugars k3 d10 k3, PS) | – | target mRNA inhibition ([2]; SK-MEL-28, 4 µM): 41%
113 | TTTTTCTCACCATGGC (sugars k3 d10 k3, PS) | – | target mRNA inhibition ([2]; SK-MEL-28, 4 µM): 74%
